Experimental data: PubChem BioAssay (NCI)
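Tested at 5 concentrations; 48 h exposure; 96-well plates; endpoints linearly interpolated, else capped at highest concentration. TGI: total growth inhibition.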

Legend:
Experiment in all cases: NCI tumour cell line growth inhibition, 48 h
HCT-15 colon = tested on: HCT-15 colon
OVCAR-4 ovarian = tested on: OVCAR-4 ovarian
SF-268 CNS = tested on: SF-268 CNS
MDA-N = tested on: MDA-N
OVCAR-3 ovarian = tested on: OVCAR-3 ovarian
NCI-H23 lung = tested on: NCI-H23 lung
NCI/ADR-RES ovarian = tested on: NCI/ADR-RES ovarian
SNB-75 CNS = tested on: SNB-75 CNS
HOP-92 NSCLC = tested on: HOP-92 NSCLC
UO-31 renal = tested on: UO-31 renal
A549 NSCLC = tested on: A549 NSCLC
BT-549 breast = tested on: BT-549 breast
IGROV1 ovarian = tested on: IGROV1 ovarian
UACC-62 melanoma = tested on: UACC-62 melanoma
LOX IMVI melanoma = tested on: LOX IMVI melanoma
TK-10 renal = tested on: TK-10 renal
HCT-116 colon = tested on: HCT-116 colon
786-0 renal = tested on: 786-0 renal
SK-MEL-2 melanoma = tested on: SK-MEL-2 melanoma
HS 578T breast = tested on: HS 578T breast
MDA-MB-435 = tested on: MDA-MB-435
SK-OV-3 ovarian = tested on: SK-OV-3 ovarian
DU-145 prostate = tested on: DU-145 prostate
SF-539 CNS = tested on: SF-539 CNS
EKVX NSCLC = tested on: EKVX NSCLC
M14 melanoma = tested on: M14 melanoma
MCF7 breast = tested on: MCF7 breast
MALME-3M melanoma = tested on: MALME-3M melanoma
NCI-H460 lung = tested on: NCI-H460 lung
SK-MEL-5 melanoma = tested on: SK-MEL-5 melanoma
SW-620 colon = tested on: SW-620 colon
NCI-H226 lung = tested on: NCI-H226 lung
NCI-H522 lung = tested on: NCI-H522 lung
RXF 393 renal = tested on: RXF 393 renal
U251 CNS = tested on: U251 CNS
HCC-2998 colon = tested on: HCC-2998 colon
UACC-257 melanoma = tested on: UACC-257 melanoma
KM12 colon = tested on: KM12 colon
CCRF-CEM leukemia = tested on: CCRF-CEM leukemia
PC-3 prostate = tested on: PC-3 prostate
SR leukemia = tested on: SR leukemia
HT29 colon = tested on: HT29 colon
K-562 leukemia = tested on: K-562 leukemia
MDA-MB-231 breast = tested on: MDA-MB-231 breast
OVCAR-5 ovarian = tested on: OVCAR-5 ovarian
COLO 205 colon = tested on: COLO 205 colon
ACHN renal = tested on: ACHN renal
A498 renal = tested on: A498 renal
T-47D breast = tested on: T-47D breast
SN12C renal = tested on: SN12C renal
OVCAR-8 ovarian = tested on: OVCAR-8 ovarian
SF-295 CNS = tested on: SF-295 CNS
CAKI-1 renal = tested on: CAKI-1 renal
SNB-19 CNS = tested on: SNB-19 CNS
HL-60(TB) leukemia = tested on: HL-60(TB) leukemia
SK-MEL-28 melanoma = tested on: SK-MEL-28 melanoma
MOLT-4 leukemia = tested on: MOLT-4 leukemia
HOP-62 NSCLC = tested on: HOP-62 NSCLC
RPMI-8226 leukemia = tested on: RPMI-8226 leukemia

With `N#CCCC(C=O)(CCC#N)CCC#N` the TGI (HCT-15 colon) was over 100 µM, the TGI (OVCAR-4 ovarian) was over 100 µM and the TGI (SF-268 CNS) was over 100 µM. It also gave a TGI (MDA-N) of over 100 µM, a TGI (OVCAR-3 ovarian) of over 100 µM and a TGI (NCI-H23 lung) of over 100 µM. For the same compound, the TGI (NCI/ADR-RES ovarian) was over 100 µM, the TGI (SNB-75 CNS) was over 100 µM and the TGI (HOP-92 NSCLC) was over 100 µM. For the same compound, the TGI (UO-31 renal) was over 100 µM, the TGI (A549 NSCLC) was over 100 µM and the TGI (BT-549 breast) was over 100 µM. For the same compound, the TGI (IGROV1 ovarian) was over 100 µM, the TGI (UACC-62 melanoma) was over 100 µM and the TGI (LOX IMVI melanoma) was over 100 µM. The TGI (TK-10 renal) was over 100 µM, the TGI (HCT-116 colon) was over 100 µM and the TGI (786-0 renal) was over 100 µM. It also gave a TGI (SK-MEL-2 melanoma) of over 100 µM, a TGI (HS 578T breast) of over 100 µM and a TGI (MDA-MB-435) of over 100 µM. For the same compound, the TGI (SK-OV-3 ovarian) was over 100 µM, the TGI (DU-145 prostate) was over 100 µM and the TGI (SF-539 CNS) was over 100 µM. The TGI (EKVX NSCLC) was over 100 µM, the TGI (M14 melanoma) was over 100 µM and the TGI (MCF7 breast) was over 100 µM. For the same compound, the TGI (MALME-3M melanoma) was over 100 µM, the TGI (NCI-H460 lung) was over 100 µM and the TGI (SK-MEL-5 melanoma) was over 100 µM. For the same compound, the TGI (SW-620 colon) was over 100 µM, the TGI (NCI-H226 lung) was over 100 µM and the TGI (NCI-H522 lung) was over 100 µM. For the same compound, the TGI (RXF 393 renal) was over 100 µM, the TGI (U251 CNS) was over 100 µM and the TGI (HCC-2998 colon) was over 100 µM. It also gave a TGI (UACC-257 melanoma) of over 100 µM, a TGI (KM12 colon) of over 100 µM and a TGI (CCRF-CEM leukemia) of over 100 µM. The TGI (PC-3 prostate) was over 100 µM, the TGI (SR leukemia) was over 100 µM and the TGI (HT29 colon) was over 100 µM. The TGI (K-562 leukemia) was over 100 µM, the TGI (MDA-MB-231 breast) was over 100 µM and the TGI (OVCAR-5 ovarian) was over 100 µM. It also gave a TGI (COLO 205 colon) of over 100 µM, a TGI (ACHN renal) of over 100 µM and a TGI (A498 renal) of over 100 µM. It also gave a TGI (T-47D breast) of over 100 µM, a TGI (SN12C renal) of over 100 µM and a TGI (OVCAR-8 ovarian) of over 100 µM. For the same compound, the TGI (SF-295 CNS) was over 100 µM, the TGI (CAKI-1 renal) was over 100 µM and the TGI (SNB-19 CNS) was over 100 µM. The TGI (HL-60(TB) leukemia) was over 100 µM and the TGI (SK-MEL-28 melanoma) was over 100 µM.
In the case of `O=CCCCCCOCc1ccccc1`, the TGI (HCT-15 colon) is reported as over 100 µM, the TGI (OVCAR-4 ovarian) is reported as over 100 µM and the TGI (SF-268 CNS) is reported as over 100 µM. The TGI (MDA-N) was over 100 µM, the TGI (OVCAR-3 ovarian) was over 100 µM and the TGI (NCI-H23 lung) was over 82.6 µM. For the same compound, the TGI (NCI/ADR-RES ovarian) was over 100 µM, the TGI (SNB-75 CNS) was over 100 µM and the TGI (MOLT-4 leukemia) was 37.4 µM. For the same compound, the TGI (HOP-92 NSCLC) was over 100 µM, the TGI (UO-31 renal) was over 100 µM and the TGI (A549 NSCLC) was over 100 µM. It also gave a TGI (BT-549 breast) of over 100 µM, a TGI (IGROV1 ovarian) of over 100 µM and a TGI (UACC-62 melanoma) of over 89.4 µM. It also gave a TGI (LOX IMVI melanoma) of 34.9 µM, a TGI (TK-10 renal) of over 100 µM and a TGI (HCT-116 colon) of over 67.9 µM. It also gave a TGI (786-0 renal) of 68.1 µM, a TGI (SK-MEL-2 melanoma) of over 100 µM and a TGI (HS 578T breast) of over 100 µM. For the same compound, the TGI (MDA-MB-435) was over 100 µM, the TGI (SK-OV-3 ovarian) was over 100 µM and the TGI (DU-145 prostate) was over 100 µM. It also gave a TGI (SF-539 CNS) of over 100 µM, a TGI (EKVX NSCLC) of over 100 µM and a TGI (M14 melanoma) of over 100 µM. For the same compound, the TGI (MCF7 breast) was over 100 µM, the TGI (MALME-3M melanoma) was over 100 µM and the TGI (NCI-H460 lung) was over 54.9 µM. The TGI (SK-MEL-5 melanoma) was over 54.4 µM, the TGI (SW-620 colon) was over 100 µM and the TGI (NCI-H226 lung) was over 100 µM. The TGI (NCI-H522 lung) was over 100 µM, the TGI (RXF 393 renal) was over 100 µM and the TGI (U251 CNS) was over 100 µM. For the same compound, the TGI (HCC-2998 colon) was over 100 µM, the TGI (UACC-257 melanoma) was over 100 µM and the TGI (KM12 colon) was over 100 µM. The TGI (CCRF-CEM leukemia) was over 69.9 µM, the TGI (PC-3 prostate) was over 100 µM and the TGI (SR leukemia) was over 100 µM. The TGI (HT29 colon) was over 100 µM, the TGI (K-562 leukemia) was over 31.7 µM and the TGI (MDA-MB-231 breast) was over 100 µM. The TGI (OVCAR-5 ovarian) was over 100 µM, the TGI (COLO 205 colon) was over 100 µM and the TGI (ACHN renal) was over 100 µM. The TGI (A498 renal) was over 100 µM, the TGI (T-47D breast) was over 100 µM and the TGI (SN12C renal) was 32.6 µM. For the same compound, the TGI (OVCAR-8 ovarian) was over 100 µM, the TGI (SF-295 CNS) was over 60.4 µM and the TGI (CAKI-1 renal) was over 66.8 µM. It also gave a TGI (SNB-19 CNS) of over 100 µM, a TGI (HL-60(TB) leukemia) of over 43.7 µM and a TGI (HOP-62 NSCLC) of 79.9 µM. The TGI (SK-MEL-28 melanoma) was over 100 µM and the TGI (RPMI-8226 leukemia) was over 56.8 µM.
